In assay [1] the test system is CCRF-CEM human leukemia cell line. The conditions noted are these: read-out: IC50, CCRF-CEM; equi-mixture of C10-diastereomers; cited from earlier work.
For a further assay, the system named is CCRF-CEM/FPGS^-. The format is cell-based, human. The conditions noted are these: relative to CCRF-CEM.
The subject of assay [2] is CCRF-CEM human leukemia cell line. As to the kind of experiment: In vitro cytotoxic activity. The conditions noted are these: for Times less potent than 2 in the CCRF-CEM assay: relative to 2. Format: cell-based.
A further assay addresses T1, rhGAR Tfase (Homo sapiens, UniProt P22102).
T1 sequence (P22102 808-1010 limits assumed): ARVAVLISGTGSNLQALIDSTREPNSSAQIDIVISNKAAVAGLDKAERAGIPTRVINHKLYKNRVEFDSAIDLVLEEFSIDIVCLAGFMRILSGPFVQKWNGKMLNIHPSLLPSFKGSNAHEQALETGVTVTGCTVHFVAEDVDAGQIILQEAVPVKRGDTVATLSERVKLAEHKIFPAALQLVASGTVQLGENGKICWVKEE
Description: GAR Tfase enzyme inhibition assay. The format is biochemical.

Setting [3] is: Homo sapiens, CCRF-CEM, read-out: IC50 [(-)T, (-)H] CCRF-CEM.

The text below walks through data of article PMC2559975 (Journal of medicinal chemistry, 2008).

What is called pIC50 is the negative decadic logarithm of the IC50, by convention in mol/L. As a reminder, the pKi is the Ki on a negative log10 scale, so that one unit is a factor of ten. High values mean a low Ki, low ones a high Ki.

pIC50, pKi: −log10 of the molar value. Where two headings read alike, the source gives them in different places.

In the case of `CSC(CCCc1c(N)nc(N)[nH]c1=O)c1ccc(C(=O)N[C@@H](CCC(=O)O)C(=O)O)cc1` (some centres unmarked) [Compound 3, 10-methylthio-DDACTHF], in assay [1], the pIC50 was 7.00. Further, the “Loss of activity against the cell line that lacks FPGS” value in the assay on CCRF-CEM/FPGS^- is “ca. 100 fold”.

With `CS[C@H](CCCc1c(N)nc(N)[nH]c1=O)c1ccc(C(=O)N[C@@H](CCC(=O)O)C(=O)O)cc1` [Compound 10R-3, (S)-2-(4-((R)-4-(2,4-Diamino-6-oxo-1,6-dihydropyrimidin-5-yl)-1-(methylthio)butyl)benzamido)pentanedioic Acid], in assay [2] (setting [3]), the pIC50 was 7.05. The “Times less potent than 2 in the CCRF-CEM assay” value in assay [2] was 3-5 times.

With `Nc1nc(N)c(CCCC2(c3ccc(C(=O)N[C@@H](CCC(=O)O)C(=O)O)cc3)SCCCS2)c(=O)[nH]1` [Compound 9, (S)-2-(4-(2-(3-(2,4-Diamino-6-oxo-1,6-dihydropyrimidin-5-yl)propyl)-1,3-dithian-2-yl)benzamido)pentanedioic Acid], the “Activity in the CCRF-CEM cell-based assay (in words)” value in assay [2] is listed as “no activity”.

On to `CS[C@@H](CCCc1c(N)nc(N)[nH]c1=O)c1ccc(C(=O)N[C@@H](CCC(=O)O)C(=O)O)cc1` [Compound 10S-3, 10-methylthio-DDACTHF], for which the “Times less potent than 2 in the CCRF-CEM assay” value in assay [2] is 3-5 times.

For 10-hydroxy-DDACTHF [Compound 10R-7], the pIC50 was 5.24 in assay [2] (read-out: CCRF-CEM IC50, (+) T, (-) H, Table 2, thymidine added, no hypoxanthine) and < 5.00 in assay [2] (read-out: CCRF-CEM IC50, (-) T, (+) H, Table 2, hypoxanthine added, no thymidine).

Take `Nc1nc(N)c(CCCC(C(=O)C(F)(F)F)c2ccc(C(=O)N[C@@H](CCC(=O)O)C(=O)O)cc2)c(=O)[nH]1` (some centres unmarked) [Compound 2, 10-CF3CO-DDACTHF, reference compound]: the pIC50 in assay [2] (setting [3]) is 7.22.

As for `CO[C@@H](CCCc1c(N)nc(N)[nH]c1=O)c1ccc(C(=O)N[C@@H](CCC(=O)O)C(=O)O)cc1` [Compound 10S-8, (S)-2-(4-((S)-4-(2,4-Diamino-6-oxo-1,6-dihydropyrimidin-5-yl)-1-methoxybutyl)benzamido)pentanedioic Acid], in assay [2] (setting [3]), the pIC50 was 6.10.

At rhGAR Tfase, `Nc1nc(N)c(CCC[C@H](O)c2ccc(C(=O)N[C@@H](CCC(=O)O)C(=O)O)cc2)c(=O)[nH]1` [Compound 10S-7, (S)-2-(4-((S)-4-(2,4-Diamino-6-oxo-1,6-dihydropyrimidin-5-yl)-1-hydroxybutyl)benzamido)pentanedioic Acid] had a pKi of 5.92.
